The results in this text go back to patent publication US20260109732A1, “LIPID AMINES” (ModernaTX, Inc., priority 2021, published 2026).

Counter-ions that a name gives are not always drawn.

A short description of data set [1]: Diameter and PDI from DLS measurements of mRNA nanoparticles with lipid amines. The format is physicochemical. In outline: (§1)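 Ionizable lipid nanoparticles (IL1:DSPC:cholesterol:PEG-DMG-2K) formed by vortex mixing at pH 4, loaded with luciferase or CFTR mRNA at N:P 4.93, neutralized with TRIS pH 8.12, then modified with lipid amine SA50 at pH 7.5. Particle diameter and PDI read by DLS; mRNA encapsulation by Ribogreen assay.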

A short description of data set [2]: Encapsulation of mRNA nanoparticles with lipid amines using Ribogreen assay. The format is physicochemical. An outline of the steps: as §1
In data set [3] the test system is HeLa cells. As to the kind of experiment: Luciferase Protein Expression Assay in HeLa Cells. The format is cell-based, Human. Particulars: LNPs encapsulating Luciferase mRNA, 25 ng per well, N=4 wells; 5 h serum-free then 24 h; ONE-Glo. An outline of the steps: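 HeLa cells received LNPs carrying luciferase mRNA (25 ng per well) or PBS in serum-free MEM for 5 h, then complete MEM for a further 24 h. Luciferase then read by ONE-Glo luminescence after lysis and reported as average RLU of 4 replicate wells.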

The test system of data set [4] is HeLa cells. As to the kind of experiment: CFTR Protein Expression Assay in HeLa Cells. The format is cell-based, Human. Particulars: LNPs encapsulating CFTR mRNA, N=4 wells; 5 h serum-free then 24 h; immunofluorescence vs PBS control. In outline:
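HeLa cells dosed with CFTR mRNA LNPs (70 mM NaCl final buffer matrix) in serum-free MEM for 5 h, then complete MEM for 24 h. Fixed cells immunostained with anti-CFTR monoclonal and Alexa 488 secondary, imaged confocally; CFTR intensity per cell expressed as fold-change versus PBS buffer control, N=4 wells.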

The mark [5] stands for this setting: CFTR mRNA nanoparticle with lipid amine.
[6] abbreviates: Luciferase mRNA nanoparticle modified with lipid amine.

Regarding `CC(C)CCC[C@@H](C)[C@H]1CC[C@H]2[C@@H]3CC=C4C[C@@H](OC(=O)N(CCCN)CCCCOCCCN)CC[C@]4(C)[C@H]3CC[C@]12C` [SA61, (3S,8S,9S,10R,13R,14S,17R)-10,13-Dimethyl-17-((R)-6-methylheptan-2-yl)-2,3,4,7,8,9,10,11,12,13,14,15,16,17-tetradecahydro-1H-cyclopenta[a]phenanthren-3-yl (4-(3-aminopropoxy)butyl)(3-aminopropyl)carbamate dihydrochloride], the “Diameter (nm)” value in data set [1] (setting [5]) is listed as 71.3 nm; in data set [1] (setting [6]) it was 77 nm. In addition, the PDI in data set [1] (setting [5]) is listed as 0.11; in data set [1] (setting [6]), 0.16. Also, the “% Encapsulation (Ribogreen)” value in data set [2] (setting [5]) was determined as 99.4%; in data set [2] (setting [6]) it was 99.1%. Besides, in the data set on HeLa cells [3], the “Average Relative Light Units ± Standard Deviation” value is reported as 14343.1 ± 5298.1 Relative Light Units. Also, in the data set on HeLa cells [4], the “Average fold-change in CFTR signal intensity per cell compared to buffer control ± standard deviation” value is 7.2 ± 0.4 fold-change.
For `CC(C)CCC[C@@H](C)[C@H]1CC[C@H]2[C@@H]3CC=C4C[C@@H](OC(=O)[C@H](CCCCN)NCCCCCCN)CC[C@]4(C)[C@H]3CC[C@]12C.Cl.Cl.Cl` [SA131, (3S,8S,9S,10R,13R,14S,17R)-10,13-dimethyl-17-((R)-6-methylheptan-2-yl)-2,3,4,7,8,9,10,11,12,13,14,15,16,17-tetradecahydro-1H-cyclopenta[a]phenanthren-3-yl (6-aminohexyl)-L-lysinate trihydrochloride], the “Diameter (nm)” value in data set [1] (setting [5]) was 83.8 nm; in data set [1] (setting [6]), 72 nm. The PDI in data set [1] (setting [5]) is recorded as 0.14; in data set [1] (setting [6]) it was 0.12. In addition, the “% Encapsulation (Ribogreen)” value in data set [2] (setting [5]) came to 98.6%; in data set [2] (setting [6]), 99.6%. For the same compound, the “Average Relative Light Units ± Standard Deviation” value in the data set with HeLa cells [3] is listed as 40915.5 ± 4983.3 Relative Light Units. Besides, in the data set with HeLa cells [4], the “Average fold-change in CFTR signal intensity per cell compared to buffer control ± standard deviation” value came out at 10.8 ± 0.5 fold-change.
In the case of `CC[C@H](CC[C@@H](C)[C@H]1CC[C@H]2[C@@H]3CC=C4C[C@@H](OC(=O)CCC(=O)N(CCCCCCCC(C)N)CCC(C)N)CC[C@]4(C)[C@H]3CC[C@]12C)C(C)C` (stereo partly drawn) [SA163, (3S,8S,9S,10R,13R,14S,17R)-17-((2R,5R)-5-ethyl-6-methylheptan-2-yl)-10,13-dimethyl-2,3,4,7,8,9,10,11,12,13,14,15,16,17-tetradecahydro-1H-cyclopenta[a]phenanthren-3-yl 4-((3-aminobutyl)(8-aminononyl)amino)-4-oxobutanoate dihydrochloride], the “Diameter (nm)” value in data set [1] (setting [5]) was found to be 70.6 nm; in data set [1] (setting [6]) it was 71 nm. Besides, the PDI came out at 0.09 in data set [1] (setting [5]) and 0.17 in data set [1] (setting [6]). The “% Encapsulation (Ribogreen)” value in data set [2] (setting [5]) stood at 100%; in data set [2] (setting [6]), 99.1%. For the same compound, the “Average Relative Light Units ± Standard Deviation” value in the data set with HeLa cells [3] was determined as 30168 ± 7878.9 Relative Light Units. Moreover, the “Average fold-change in CFTR signal intensity per cell compared to buffer control ± standard deviation” value with HeLa cells [4] was found to be 11.3 ± 0.5 fold-change.
On to `CC[C@H](CC[C@@H](C)[C@H]1CC[C@H]2[C@@H]3CC=C4C[C@@H](OC(=O)N(CCCCNCCC(C)(C)N)CCC(C)(C)N)CC[C@]4(C)[C@H]3CC[C@]12C)C(C)C` [SA114, (3S,8S,9S,10R,13R,14S,17R)-17-((2R,5R)-5-ethyl-6-methylheptan-2-yl)-10,13-dimethyl-2,3,4,7,8,9,10,11,12,13,14,15,16,17-tetradecahydro-1H-cyclopenta[a]phenanthren-3-yl (3-amino-3-methylbutyl)(4-((3-amino-3-methylbutyl)amino)butyl)carbamate trihydrochloride], for which the “Diameter (nm)” value in data set [1] (setting [5]) is listed as 85.9 nm; in data set [1] (setting [6]), 75 nm. In addition, the PDI in data set [1] (setting [5]) turned out to be 0.13; in data set [1] (setting [6]), 0.18. In addition, the “% Encapsulation (Ribogreen)” value in data set [2] (setting [5]) is 98.5%; in data set [2] (setting [6]), 99.7%. The “Average Relative Light Units ± Standard Deviation” value in the data set with HeLa cells [3] was 22594.3 ± 9128.4 Relative Light Units. Moreover, the “Average fold-change in CFTR signal intensity per cell compared to buffer control ± standard deviation” value in the data set with HeLa cells [4] was determined as 6.3 ± 1.3 fold-change.
As to `CCC(N)(CC)CCNCCCCN(CCC(N)(CC)CC)C(=O)CCCC(=O)O[C@H]1CC[C@@]2(C)C(=CC[C@H]3[C@@H]4CC[C@H]([C@H](C)CCCC(C)C)[C@@]4(C)CC[C@@H]32)C1` [SA185, (3S,8S,9S,10R,13R,14S,17R)-10,13-dimethyl-17-((R)-6-methylheptan-2-yl)-2,3,4,7,8,9,10,11,12,13,14,15,16,17-tetradecahydro-1H-cyclopenta[a]phenanthren-3-yl 5-((3-amino-3-ethylpentyl)(4-((3-amino-3-ethylpentyl)amino)butyl)amino)-5-oxopentanoate trihydrochloride], the “Diameter (nm)” value in data set [1] (setting [5]) is reported as 73 nm; in data set [1] (setting [6]), 75 nm. The PDI in data set [1] (setting [5]) and in data set [1] (setting [6]) was 0.16 each time. Moreover, the “% Encapsulation (Ribogreen)” value in data set [2] (setting [5]) was 98.6%; in data set [2] (setting [6]), 99.4%. The “Average Relative Light Units ± Standard Deviation” value with HeLa cells [3] stood at 36168.3 ± 7638.9 Relative Light Units. Also, the “Average fold-change in CFTR signal intensity per cell compared to buffer control ± standard deviation” value with HeLa cells [4] is listed as 14.2 ± 1.0 fold-change.
As to `C/C(=C/CCC(C)C)[C@H]1CC[C@H]2[C@@H]3CC=C4C[C@@H](OC(=O)N(CCCN)CCCCNCCCN)CC[C@]4(C)[C@H]3CC[C@]12C` [SA70, (3S,8S,9S,10R,13R,14S,17R)-10,13-dimethyl-17-((R)-6-methylheptan-2-yl)-2,3,4,7,8,9,10,11,12,13,14,15,16,17-tetradecahydro-1H-cyclopenta[a]phenanthren-3-yl (3-aminopropyl)(4-((3-aminopropyl)amino)butyl)carbamate analog olefin elimination by-product from hydroxycholesterol], the “Diameter (nm)” value in data set [1] (setting [5]) was determined as 76.2 nm; in data set [1] (setting [6]) it was 76 nm. In addition, the PDI was 0.16 in data set [1] (setting [5]) and 0.21 in data set [1] (setting [6]). For the same compound, the entries for the “% Encapsulation (Ribogreen)” value in data set [2] (setting [5]) and in data set [2] (setting [6]) were 99.8% and 97.9%, respectively. For the same compound, the “Average Relative Light Units ± Standard Deviation” value with HeLa cells [3] came out at 11822.1 ± 4128.6 Relative Light Units. Also, the “Average fold-change in CFTR signal intensity per cell compared to buffer control ± standard deviation” value in the data set with HeLa cells [4] came to 4.5 ± 0.8 fold-change.
Regarding `CC[C@H](CC[C@@H](C)[C@H]1CC[C@H]2[C@@H]3CC=C4C[C@@H](OC(=O)CCCC(=O)N(CCCCNCCC(N)(CC)CC)CCC(N)(CC)CC)CC[C@]4(C)[C@H]3CC[C@]12C)C(C)C` [SA182, (3S,8S,9S,10R,13R,14S,17R)-17-((2R,5R)-5-ethyl-6-methylheptan-2-yl)-10,13-dimethyl-2,3,4,7,8,9,10,11,12,13,14,15,16,17-tetradecahydro-1H-cyclopenta[a]phenanthren-3-yl 5-((3-amino-3-ethylpentyl)(4-((3-amino-3-ethylpentyl)amino)butyl)amino)-5-oxopentanoate trihydrochloride], the entries for the “Diameter (nm)” value in data set [1] (setting [5]) and in data set [1] (setting [6]) were 72 nm and 73 nm, respectively. Besides, the figures for the PDI in data set [1] (setting [5]) and in data set [1] (setting [6]) were 0.13 and 0.14, respectively. In addition, the entries for the “% Encapsulation (Ribogreen)” value in data set [2] (setting [5]) and in data set [2] (setting [6]) were 98.0% and 99.0%, respectively. In the data set with HeLa cells [3], the “Average Relative Light Units ± Standard Deviation” value came to 38564.9 ± 12453 Relative Light Units. In addition, the “Average fold-change in CFTR signal intensity per cell compared to buffer control ± standard deviation” value in the data set with HeLa cells [4] worked out at 13.2 ± 0.9 fold-change.
On to `CC[C@H](CC[C@@H](C)[C@H]1CC[C@H]2[C@@H]3CC=C4C[C@@H](OC(=O)CCCC(=O)N(CCCN)CCCCCCCCN)CC[C@]4(C)[C@H]3CC[C@]12C)C(C)C.Cl.Cl` [SA135, (3S,8S,9S,10R,13R,14S,17R)-17-((2R,5R)-5-ethyl-6-methylheptan-2-yl)-10,13-dimethyl-2,3,4,7,8,9,10,11,12,13,14,15,16,17-tetradecahydro-1H-cyclopenta[a]phenanthren-3-yl 5-((8-aminooctyl)(3-aminopropyl)amino)-5-oxopentanoate dihydrochloride], for which the entries for the “Diameter (nm)” value in data set [1] (setting [5]) and in data set [1] (setting [6]) were 73.5 nm and 71 nm, respectively. Moreover, the PDI in data set [1] (setting [5]) stood at 0.11; in data set [1] (setting [6]), 0.12. In addition, the figures for the “% Encapsulation (Ribogreen)” value in data set [2] (setting [5]) and in data set [2] (setting [6]) were 98.0% and 99.3%, respectively. The “Average Relative Light Units ± Standard Deviation” value in the data set on HeLa cells [3] is listed as 27499.8 ± 7269.5 Relative Light Units. Besides, in the data set on HeLa cells [4], the “Average fold-change in CFTR signal intensity per cell compared to buffer control ± standard deviation” value is 16.6 ± 1.5 fold-change.
